In patent US20250228838A1, “METHODS OF USE OF CYCLIC AMIDE DERIVATIVES TO TREAT SIGMA RECEPTOR MEDIATED DISORDERS” (Minerva Neurosciences, Inc., priority 2010, published 2025):
pKi: −log10 of the molar value.

Experiments:
[1] = tested on: patients with DSM-IV schizophrenia; assay: Phase 2 double-blind, randomized, placebo-controlled clinical study of CYR-101; type: in vivo, human
Protocol: A study was conducted using the compound of formula II, to examine the efficacy on schizophrenia and treatment of symptoms of schizophrenia. The study was a multi-center, inpatient and ambulatory, phase 2, double-blind, randomized, placebo-controlled proof of concept study of the compound of formula II in patients with DSM-IV schizophrenia. The study used 21 centers across three different countries. The study was designed to test the therapeutic efficacy of the compound of formula II on all dimensions of schizophrenic disease (E.g., positive, negative, and general symptoms, cognition, sleep, mood and anxiety). The study also examined the safety of the administered doses of the compound of formula II (also referred to herein as CYR-101), including heart repolarization (i.e., QT interval), weight change, adverse events, prolactin, and extrapyramidal symptoms). The study was conducted for a time period of three months. […] In one aspect of the study, the dosage of compound was titrated up to 32 mg b.i.d. The resulting data was analyzed one of three ways: 1.) Safety set; 2.) Full analysis set, with each patient having at least one PANSS evaluation after treatment initiation included in the efficacy analysis. The LOCF method is used; and 3.) Per protocol set, where for certain analyses, all patients having completed three months of treatment are included. ANCOVA followed by a contrast analysis at each time point were applied and in some cases, a non-parametric Wilcoxon test was used.

[2] = target: sigma 2 receptor (Homo sapiens, UniProt Q5BJF2); settings: cited from earlier work
[3] = target: 5-HT2A (Homo sapiens, UniProt P28223); settings: cited from earlier work
[4] = tested on: dopamine; settings: cited from earlier work

sigma 2 receptor, sequence (Q5BJF2 whole entry, species assumed): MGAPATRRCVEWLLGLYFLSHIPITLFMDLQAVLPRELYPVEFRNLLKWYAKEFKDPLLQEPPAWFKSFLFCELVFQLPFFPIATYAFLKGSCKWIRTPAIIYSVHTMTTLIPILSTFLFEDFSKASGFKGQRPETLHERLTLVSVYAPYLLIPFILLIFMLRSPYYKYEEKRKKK
5-HT2A, sequence (P28223 whole entry, species assumed): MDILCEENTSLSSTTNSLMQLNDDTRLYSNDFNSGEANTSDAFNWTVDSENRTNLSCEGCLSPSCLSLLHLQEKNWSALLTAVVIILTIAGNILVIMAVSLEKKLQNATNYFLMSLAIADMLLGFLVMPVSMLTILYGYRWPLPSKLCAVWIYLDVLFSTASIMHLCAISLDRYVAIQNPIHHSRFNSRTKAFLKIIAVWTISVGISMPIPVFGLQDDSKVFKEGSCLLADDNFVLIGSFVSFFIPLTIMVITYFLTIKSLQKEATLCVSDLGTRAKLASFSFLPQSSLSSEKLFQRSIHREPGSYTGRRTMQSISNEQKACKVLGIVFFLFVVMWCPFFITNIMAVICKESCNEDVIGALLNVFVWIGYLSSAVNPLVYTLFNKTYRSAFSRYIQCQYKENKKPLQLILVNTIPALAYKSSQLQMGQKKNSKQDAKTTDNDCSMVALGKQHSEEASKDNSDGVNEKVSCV

- emergence or worsening of extrapyramidal symptoms, CYR-101 versus placebo ([1]; schizophrenic patients, three months, titrated up to 32 mg b.i.d.): no significant difference
Structure (SMILES): O=C(CN1CCC(CN2Cc3ccccc3C2=O)CC1)c1ccc(F)cc1 [CYR-101, 2-[[1-[2-(4-Fluorophenyl)-2-oxoethyl]piperidin-4-yl]methyl]isoindolin-1-one]
- QT interval ([1]; doses up to 32 mg b.i.d., clinically acceptable limits E.g. 10-15 milliseconds or less): did not cross clinically acceptable limits
- cognitive performances assessed by BACS, versus placebo ([1]; full analysis set (FAS)): no differences between the placebo group and the CYR-101 group, except for the Token motor task
- cognitive performances assessed by BACS, versus placebo ([1]; per protocol set (PPC) at D84, Token motor task, list learning task, verbal fluency, processing speed, not statistically significant): slight difference in favour of CYR-101 group
- duration of continued improvement in both positive and negative symptoms ([1]; schizophrenic patients): continued for more than twelve weeks
- effect on cognition ([1]; schizophrenic patients): positive effect on cognition
- mood, anxiety and sleep ([1]; schizophrenic patients): some improvements of mood, anxiety and sleep
- improvement in positive symptoms ([1]; schizophrenic patients, PANSS): did not improve until after the first four weeks of treatment
- improvement in negative symptoms ([1]; schizophrenic patients, PANSS, course of treatment): observed immediately, and continued through the course of treatment
- number of SAE in the active treatment group ([1]; three SAE in total, two in placebo group, unlikely related to CYR-101): one
- pKi ([2]; Table 3 of U.S. Pat. No. 7,166,617, read-out: affinity for the sigma 2 receptor): 7.89
- mode of action at sigma 2 [2]: antagonist
- sigma 2 selectivity of receptor binding [2]: sigma 2-selective receptor binding
- mode of action at 5-HT2A [3]: antagonist
- dopamine binding [4]: devoid of dopamine binding properties
